Source: ChEMBL document CHEMBL1201862, “PubChem BioAssay data set” (2004)
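Dose response: 5 concentrations. Exposure: 48 h. Format: 96-well plates. Endpoint: linear interpolation; highest concentration if not reached. GI50 marks 50% less growth.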 Calls of active or inactive are those of the source. No stated cut-off is given here; in the data, active = GI50 up to about 1.1 µM and inactive = higher.

Tests used:
Test in all cases: DTP human tumour cell line panel, 48 h
A498 = system: A498
COLO 205 = system: COLO 205
EKVX = system: EKVX
HOP-62 = system: HOP-62
HOP-92 = system: HOP-92
HT-29 = system: HT-29
IGROV-1 = system: IGROV-1
KM-20L2 = system: KM-20L2
LOX IMVI = system: LOX IMVI
NCI-H226 = system: NCI-H226
NCI-H460 = system: NCI-H460
NCI/ADR-RES = system: NCI/ADR-RES
OVCAR-3 = system: OVCAR-3
SF-268 = system: SF-268
SK-OV-3 = system: SK-OV-3
SN12C = system: SN12C
SNB-78 = system: SNB-78
SW-620 = system: SW-620
SR = system: SR
TK-10 = system: TK-10

Row | SMILES | GI50 (A498) | GI50 (COLO 205) | GI50 (EKVX) | GI50 (HOP-62) | GI50 (HOP-92) | GI50 (HT-29) | GI50 (IGROV-1) | GI50 (KM-20L2) | GI50 (LOX IMVI) | GI50 (NCI-H226) | GI50 (NCI-H460) | GI50 (NCI/ADR-RES) | GI50 (OVCAR-3) | GI50 (SF-268) | GI50 (SK-OV-3) | GI50 (SN12C) | GI50 (SNB-78) | GI50 (SW-620) | GI50 (SR) | GI50 (TK-10)
1 | Cc1c2ccncc2cc2c1[nH]c1ccccc12 | 0.804 µM (active) | 1.64 µM (inactive) | 4.4 µM (inactive) | 8.71 µM (inactive) | 5.37 µM (inactive) | 4.42 µM (inactive) | 6.22 µM (inactive) | 3.37 µM (inactive) | 2.33 µM (inactive) | 6.14 µM (inactive) | 1.77 µM (inactive) | 3.01 µM (inactive) | 5.6 µM (inactive) | 8.22 µM (inactive) | 5.65 µM (inactive) | 1.58 µM (inactive) | 13 µM (inactive) | 2.42 µM (inactive) | – | –
2 | COc1nc2[nH]ccc2c(=O)[nH]1 | > 100 µM (inactive) | > 100 µM (inactive) | > 100 µM (inactive) | – | > 100 µM (inactive) | > 100 µM (inactive) | > 100 µM (inactive) | > 100 µM (inactive) | > 100 µM (inactive) | 0.41 µM (active) | > 100 µM (inactive) | – | – | > 100 µM (inactive) | – | > 100 µM (inactive) | > 100 µM (inactive) | > 100 µM (inactive) | > 100 µM (inactive) | > 100 µM (inactive)
3 | COC1OC(=O)[C@H]2O[N+]([O-])=C(C)[C@@H]12 (some centres undefined) | > 100 µM (inactive) | > 100 µM (inactive) | > 100 µM (inactive) | > 100 µM (inactive) | > 100 µM (inactive) | > 100 µM (inactive) | > 100 µM (inactive) | > 100 µM (inactive) | > 100 µM (inactive) | > 73.5 µM (inactive) | > 100 µM (inactive) | > 100 µM (inactive) | > 100 µM (inactive) | > 100 µM (inactive) | > 100 µM (inactive) | > 100 µM (inactive) | > 100 µM (inactive) | > 100 µM (inactive) | – | –
4 | Cc1ccc([N+](=O)[O-])cc1NC(=O)C(=O)C(C(=O)c1ccccc1F)C1OC(=O)c2ccccc21 (centres undefined) | 98.4 µM (inactive) | 38.9 µM (inactive) | 46 µM (inactive) | 40.7 µM (inactive) | > 100 µM (inactive) | 38.5 µM (inactive) | 59.7 µM (inactive) | 34.6 µM (inactive) | 27.5 µM (inactive) | 16 µM (inactive) | 38.9 µM (inactive) | – | – | 25.5 µM (inactive) | 46.5 µM (inactive) | 33.8 µM (inactive) | > 100 µM (inactive) | 35.1 µM (inactive) | 30.3 µM (inactive) | > 100 µM (inactive)
5 | NC1CCCCC1.O=P(O)(O)C(CSc1ccccc1)P(=O)(O)O | > 100 µM (inactive) | > 100 µM (inactive) | > 100 µM (inactive) | > 100 µM (inactive) | > 100 µM (inactive) | > 100 µM (inactive) | > 100 µM (inactive) | > 100 µM (inactive) | > 100 µM (inactive) | > 100 µM (inactive) | > 100 µM (inactive) | > 100 µM (inactive) | 47.9 µM (inactive) | > 100 µM (inactive) | > 100 µM (inactive) | > 100 µM (inactive) | > 100 µM (inactive) | > 100 µM (inactive) | – | –
6 | CC1(C)COC2C(N(Cc3ccccc3)Cc3ccccc3)C(=O)N21 (centres undefined) | 48.8 µM (inactive) | 25.1 µM (inactive) | 73.1 µM (inactive) | 36.9 µM (inactive) | 29.3 µM (inactive) | 31.8 µM (inactive) | 41.9 µM (inactive) | 37.1 µM (inactive) | 46.6 µM (inactive) | 47.2 µM (inactive) | 39.7 µM (inactive) | – | 30.5 µM (inactive) | 25.2 µM (inactive) | 24.9 µM (inactive) | 47.3 µM (inactive) | 42.6 µM (inactive) | 35.9 µM (inactive) | 19.1 µM (inactive) | 37.2 µM (inactive)
7 | CN(C)c1n/c(=N/c2ccc(/N=c3\nc(N(C)C)ss3)cc2)ss1 | 33 µM (inactive) | 28.2 µM (inactive) | > 74.8 µM (inactive) | > 100 µM (inactive) | > 100 µM (inactive) | 21.9 µM (inactive) | 27.5 µM (inactive) | 48.3 µM (inactive) | > 44.8 µM (inactive) | 56.5 µM (inactive) | 30.2 µM (inactive) | – | 28.2 µM (inactive) | 37.9 µM (inactive) | > 100 µM (inactive) | 40.3 µM (inactive) | 17.6 µM (inactive) | > 40.7 µM (inactive) | 6.01 µM (inactive) | 24.2 µM (inactive)
8 | COc1ccc(C2COc3cc(O)c(O)cc3C2)cc1 (centres undefined) | 9.84 µM (inactive) | 10.6 µM (inactive) | 14.1 µM (inactive) | 76.4 µM (inactive) | 11.6 µM (inactive) | 40.7 µM (inactive) | 16.7 µM (inactive) | 76.2 µM (inactive) | 32.3 µM (inactive) | 39.6 µM (inactive) | 24 µM (inactive) | 11 µM (inactive) | 11.4 µM (inactive) | 14.8 µM (inactive) | 86.3 µM (inactive) | 30.1 µM (inactive) | 38.3 µM (inactive) | 9.06 µM (inactive) | – | –
